# Laboratory results: patent US11672792B2, “Topical formulations comprising montelukast and combinations with mussel adhesive proteins” (ENLITISA (SHANGHAI) PHARMACEUTICAL CO., LTD, priority 2017, dated 2023)
# What was measured:
# [1] = system: carrageenan-induced acute inflammation in subcutaneous air pouch; experiment: Air Pouch Model I (Example 1); format: in vivo, C57BL/6 mice; design: Activity score / Edema Score / Sum (of histology scores) / Fibroplastic proliferation score / Inflammation score: scale not given here; conditions: MAP 1.5 mg, Mon 200 μg; for IFN-γ in exudate (ELISA) / IL-6 in exudate (ELISA) / IL-10 in exudate (ELISA) / TNF-α in exudate (ELISA) / Activity score / Edema Score / Fibroplastic proliferation score / Sum (of histology scores) / Inflammation score: dexamethasone 200 μg; for Exudate volume / Pouch Wall Weight / Leukocyte count in exudate / Lymphocyte count in exudate / Monocyte count in exudate / Neutrophil count in exudate: doses/mouse: dexamethasone 200 μg; for Exudate volume / Pouch Wall Weight: 24 h after carrageenan; for Activity score / Edema Score / Fibroplastic proliferation score / Sum (of histology scores) / Inflammation score: pouch wall histology
# Experimental: Healthy adult male C57BL/6 mice weighing between 20 and 30 g were supplied by Changzhou Cvens Experimental Animal Co. Ltd (Changzhou, Jiangsu Province, China). Prior to any experiments being conducted, mice were housed under standardized conditions (at a constant temperature or 22 t 2° C., with alternating 12 hour periods of light and darkness), and were fed on a standard mouse diet with water, for about a week.
# General anesthesia was induced using intraperitoneal 3% chloral hydrate (Sinopharm Chemical Reagent Co., Ltd., Shanghai, China); 1 mL/10 g of body weight). The hair of the entire dorsum was shaved and depilated 1 day before sterile air injection.
# Air pouches were produced by subcutaneous injection of sterile air (5 mL) into the intrascapular area of the mice. After three days, another injection of air (3 mL) was performed to maintain the pouches. In order to induce acute inflammation, three days after this final injection, animals received an injection of sterile carrageenan solution (CP Kelco, Taixing, Jiangsu Province, China; 1%, 0.5 mL; produced by adding 0.1 g of carrageenan powder into a beaker containing 10 mL of 0.9% saline solution and stirring). Mice were pre-treated with test samples or vehicle 1 hour before and 23 hours after the carrageenan injection into the subcutaneous air pouch. Animals were sacrificed 24 hours after the carrageenan injection.
# Skin biopsies were taken from the air pouches. A part of the biopsy was fixed in formalin (produced by adding ultra pure water to 50 mL of a 40% formaldehyde solution (Nanchang Rain Dew Experimental Equipment Co., Ltd., Nanchang, […] Provence, China) up to a total volume of 500 mL) and analyzed by histological embedding in paraffin wax, sectioning and staining.
# The cavity was washed with 4 mL of sterile phosphate buffer solution (pH 7.4; prepared by dissolving 4 g of NaCl, 0.1 g of KCl, 1.749 g of Na2HPO4.12H2O and 0.1 g of KH2PO4 in ultrapure water, adjusting the pH to 7.4 with HCl and diluting with water to a total volume of 500 mL).
# Exudates were collected and volumes were quantified. The total number of cells was determined with a haematocytometer (ADVIA 2120 Hematology System, Siemens Healthineers).
# In Table 1, MAP is a Mefp-1 solution, which is was prepared as follows. Blue mussels were harvested in the coastal area of Shandong Province, China. Mussel feet were collected, cut into small pieces and homogenized in an extraction buffer comprising 5% acetic acid in 4 mol/L of aqueous urea. The crude extracts were collected after centrifuging and then purified by liquid chromatography. […] The solutions that were employed below were prepared by adding saline solution to this semi-finished product to obtain a concentration as described in Table 1.
# burn wounds = experiment: Burn Injury Model (Example 3); format: in vivo, Sprague-Dawley rats; conditions: per wound: dexamethasone 0.4 mg, MAP 0.25 mg, montelukast 0.25 mg, once daily topically
# Experimental: Healthy adult male Sprague-Dawley rats weighing between 200 and 300 g were supplied by Beijing Vital River Laboratory Animal Technology Co. Ltd, Beijing, China.
# Prior to any experiments being conducted, rats were housed under standardized conditions (at a constant temperature or 22 t 2° C., with alternating 12 hour periods of light and darkness) and were fed on a standard rat diet with water.
# Rats were anaesthetised with 3% chloral hydrate (Sinopharm Chemical Reagent Co., Ltd., Shanghai, China) (1 mL/100 g of body weight) administered by intraperitoneal injection. The dorsal trunk was of each rat was shaved with an electric razor and surgically prepared with 70% alcohol scrubs. A constant temperature and constant pressure scald instrument (YLS-5Q, Shandong Academy of Medical Sciences, China) was employed, as this allows for a precise measurement of pressure applied to the skin surface. Thermal injury was induced by heating a stylus (with a surface area of 4 cm^2) to 80° C. and applying the stylus to the surface of the skin for a contact time of 18 seconds. 500 grams of pressure was applied during the operation. In this way, four two-degree shallow to deep burn wounds were created on each rat. Test compounds or vehicle were applied to the surface of the wound.
# Rats were kept in separate cages but were allowed to move freely throughout the test period. In the first treatment, 500 μL of the relevant solutions was applied about 3 to 4 hours after the surgery (Day 0) and then once daily for the next 7 days. Gross appearances of the scald wounds were observed every day. Photographs were taken at 48 hours (Day 2), and on the 4th (Day 4) and 7th (Day 7) days with a digital camera to compare wound healing. The skin lesions were evaluated for the following criteria: blistering, swelling, redness, crust, bleeding, secretion, granulation tissue and scar tissue. The degree of healing was expressed as the wound contraction ratio (WCR): WCR=(A0−At)/A0×100% in which A0 and At refer to the initial area and the wound area at time t, respectively.
# On Days 2, 4 and 7 after application of the burn, two rats were sacrificed and the burned skins excised. The freshly isolated skin was fixed in 10% neutral buffered formalin (which contained 4% of formaldehyde). This was used for histological embedding, staining and immunohistochemical studies.
# Administered solutions were made up substantially as described in Example 1 above.
# Burn scores are shown in Table 12 below and are illustrated in FIG. 3. Skin samples were sent to the Department of Pathology of Nanjing Hospital of Chinese Medicine, China. Samples were fixed and embedded, and histological sections were cut and stained. The stained sections were examined under a light microscope and pictures were taken. All pictures were interpreted and scored according to the following criteria: first degree—the epidermis was damaged and the substrate remains intact (score 1 point); superficial second degree—the epidermis was completely damaged and the papillary layer was damaged (1.5 points): deep second degree—the dermis was injured into the reticular layer and retain some dermis (2.5 points); and third degree—the dermis was completely damaged and the muscles and/or bones affected (3 points).
compound,measurement,setting,value
"CC(C)(O)c1ccccc1CC[C@@H](SCC1(CC(=O)O)CC1)c1cccc(/C=C/c2ccc3ccc(Cl)cc3n2)c1 [Mon, Montelukast sodium]",IFN-γ in exudate (ELISA),[1]; listed as Mon (oral),2495 ± 711
same,IL-6 in exudate (ELISA),[1]; listed as Mon (oral),8453 ± 9758
same,IL-10 in exudate (ELISA),[1]; listed as Mon (oral),52.59 ± 7.22
same,TNF-α in exudate (ELISA),[1]; listed as Mon (oral),39.41 ± 17.62
same,IFN-γ in exudate (ELISA),[1]; listed as Mon (topical),1690 ± 725
same,IL-6 in exudate (ELISA),[1]; listed as Mon (topical),2528 ± 1538
same,IL-10 in exudate (ELISA),[1]; listed as Mon (topical),68.18 ± 15.81
same,TNF-α in exudate (ELISA),[1]; listed as Mon (topical),90.73 ± 109.02
same,Exudate volume,[1]; listed as Mon (oral),3.58 ± 0.15 mL
same,Pouch Wall Weight,[1]; listed as Mon (oral),0.67 ± 0.10 g
same,Exudate volume,[1]; listed as Mon (topical),3.68 ± 0.15 mL
same,Pouch Wall Weight,[1]; listed as Mon (topical),0.66 ± 0.13 g
same,Leukocyte count in exudate,[1]; listed as Mon (oral),2.38e+08 mL⁻¹
same,Lymphocyte count in exudate,[1]; listed as Mon (oral),1.98e+08 mL⁻¹
same,Monocyte count in exudate,[1]; listed as Mon (oral),7e+06 mL⁻¹
same,Neutrophil count in exudate,[1]; listed as Mon (oral),2.1e+07 mL⁻¹
same,Leukocyte count in exudate,[1]; listed as Mon (topical),3.82e+08 mL⁻¹
same,Lymphocyte count in exudate,[1]; listed as Mon (topical),3.22e+08 mL⁻¹
same,Monocyte count in exudate,[1]; listed as Mon (topical),1.7e+07 mL⁻¹
same,Neutrophil count in exudate,[1]; listed as Mon (topical),2.9e+07 mL⁻¹
same,Activity score,[1],1.00
same,Edema Score,[1]; listed as Mon (oral),1.00
same,Fibroplastic proliferation score,[1]; listed as Mon (oral),0.33
same,Sum (of histology scores),[1]; listed as Mon (oral),4.17
same,Fibroplastic proliferation score,[1]; listed as Mon (topical),0.83
same,Inflammation score,[1]; listed as Mon (topical),2.17
same,Sum (of histology scores),[1]; listed as Mon (topical),5.50
same,Burn score,burn wounds; Day 2,1.50
same,Burn score,burn wounds; Day 4,2.38
same,Burn score,burn wounds; Day 7,2.00
"C[C@@H]1C[C@H]2[C@@H]3CCC4=CC(=O)C=C[C@]4(C)[C@@]3(F)[C@@H](O)C[C@]2(C)[C@@]1(O)C(=O)CO [Dexamethasone, dexamethasone]",IFN-γ in exudate (ELISA),[1],2879 ± 1267
same,IL-6 in exudate (ELISA),[1],3649 ± 1764
same,IL-10 in exudate (ELISA),[1],52.33 ± 11.60
same,TNF-α in exudate (ELISA),[1],71.31 ± 111.19
same,Leukocyte count in exudate,[1],2.48e+08 mL⁻¹
same,Lymphocyte count in exudate,[1],2.08e+08 mL⁻¹
same,Monocyte count in exudate,[1],5e+06 mL⁻¹
same,Neutrophil count in exudate,[1],2.2e+07 mL⁻¹
same,Exudate volume,[1],3.60 ± 0.14 mL
same,Pouch Wall Weight,[1],0.72 ± 0.09 g
same,Activity score,[1],0.83
same,Edema Score,[1],1.67
same,Fibroplastic proliferation score,[1],0.00
same,Inflammation score,[1],1.50
same,Sum (of histology scores),[1],4.00
same,Burn score,burn wounds; Day 2,2.25
same,Burn score,burn wounds; Day 4,2.64
same,Burn score,burn wounds; Day 7,2.50
